{"source": "patent US12415799B2", "about": "“Indazole-fused cyclic compound” (Zhejiang Yangli Pharmaceutical Technology Co., Ltd., priority 2020, dated 2025)", "key": {"rat uterus": {"tested_on": "rat uterus", "assay": "Uterine wet weight inhibition experiment in rat cubs", "type": "in vivo", "conditions": "18-day-old female rat pups, oral, three consecutive days; compounds 25 mg/kg, Ethinylestradiol 0.1 mg/kg", "protocol": "The purpose of this experiment was to evaluate the effect of the compound of the present disclosure on uterine growth inhibition in 18 to 21-day-old female rat pups (provided by Beijing Vital River Laboratory Animal Technology Co., Ltd.). In this experiment, 18-day-old female rat pups were orally administered the compound of the present disclosure at a dose of 25 mg/kg for three consecutive days, and the control group was orally administered 0.1 mg/kg of Ethinylestradiol for three consecutive days, and the blank group was not given any drug except the corresponding solvent. Three days after the administration, the rats were sacrificed, and the weight of the rat uterus was weighed to observe the effect of the test drug on the growth inhibition of the rat uterus. Inhibition rate=100×[(VehicleEE−Cpd)/(VehicleEE−Vehicle)], VehicleEE was the wet weight of the rat uterus in the control group (administered 0.1 mg/kg of Ethinylestradiol orally); Cpd was the wet weight of the rat uterus in administration group; Vehicle was the wet weight of the rat uterus in the blank group."}, "[1]": {"assay": "In vivo pharmacokinetic study in rats", "parameters": "species or system male SD rats", "text": "Experimental purposes: To test the drug concentration in plasma of rats at different times after intravenous and intragastric administration of the test compound by LC/MS/MS using male fasted SD rats as the experimental animals. To study the pharmacokinetics of the test compound in rats in vivo and evaluate their pharmacokinetic characteristics.\nExperimental animals: 4 healthy male SD rats were divided into 2 groups according to the principle of similar body weight, with 2 mice in each group in IV group and 2 mice in each group in PO group. Animals were purchased from Beijing Vital River Laboratory Animal Co., Ltd.\nIV group: Appropriate number of samples were weighed and prepared into 0.5 mg/mL solution respectively, and the mixture was stirred and ultrasonicated to reach a clear state, and the solvent was 15% HP-β-CD.\nPO group: Appropriate amount of the solution prepared in IV group was diluted to 0.4 mg/mL with 15% HP-β-CD.\nAdministration: After fasting overnight, IV group was administered intravenously, and the dosage of the test compound was 1 mg/kg; PO group was administered intragastrically, and the dosage of the test compound was 2 mg/kg.\nAfter the male rats in the intravenous injection group were given the test compound respectively, 200 μL of blood was collected from the jugular vein at 0.0833, 0.25, 0.5, 1, 2, 4, 8, and 24 hours, and placed in a commercialized anticoagulant tube added with EDTA-K2 in advance. After intragastric administration of the test compound, 200 μL of blood was collected from the jugular vein at 0.25, 0.5, 1, 2, 4, 8, 12 and 24 hours, respectively, and placed in a commercialized anticoagulant tube added with EDTA-K2 in advance. After centrifugation (3,200 g, 4° C., 10 minutes), the plasma was collected, transferred to a pre-cooled centrifuge tube, quickly frozen in dry ice, and stored in a refrigerator at −60° C. or lower, until LC-MS/MS analysis. Animals were allowed to eat 4 hours after administration. LC/MS/MS method was used to determine the content of the test compound in the plasma of rats after intravenous and intragastric administration. The linear range of the method was 2.00 to 2000 nM."}, "MCF-7 cells": {"tested_on": "MCF-7 cells", "assay": "MCF-7 cell proliferation inhibition experiment", "type": "cell-based", "conditions": "6 days incubation, CellTiter-Glo, read-out: Anti-cell proliferation activity of MCF-7", "protocol": "(1) MCF-7 Cell Proliferation Inhibition Experiment:\nEMEM culture medium was purchased from Wisent, and fetal bovine serum was purchased from Biosera, Promega CellTiter-Glo reagent. MCF-7 cell line was purchased from Cell Bank of Type Culture Collection of Chinese Academy of Sciences. Nivo5 multi-label analyzer (PerkinElmer).\nMCF-7 cells were seeded in a white 384-well plate with 600 cells per well in every […] of the cell suspension. The cell plate was placed in a carbon dioxide incubator and cultured overnight.\nThe test compound was diluted to the 10th concentration with a multi-channel pipette, and the compound concentration was 1 mM, 400 μM, and 80 μM, and then diluted to the 10th concentration of 1 nM in turn, and a double-duplicate experiment was set-up. 47.5 μL of culture medium was added to the middle plate, then 2.5 μL of gradient dilution compound per well was transferred to the middle plate according to the corresponding position, and 5 μL of the mixture per well was mixed evenly and transferred to the cell plate. The cell plate was placed in a carbon dioxide incubator and cultured for 6 days.\nAfter 6 days of co-incubation of the compound, the culture medium was removed by centrifugation, and 25 μL of Promega CellTiter-Glo reagent was added to each well of the cell plate, and incubated at room temperature for 10 minutes to stabilize the luminescence signal. PerkinElmer Nivo multi-marker analyzer reading was used. In the experiment, the reading of 2 μM positive reference compound H3B-6545(US20160347717A1) was used as a positive control to participate in data calculation.\nThe equation % Inhibition=((RFUCmpd−AVER(RFUNeg.ctrl))/((AVER(RFUPos.Ctrl)−AVER(RFUNeg.ctrl))×100% was used to convert the original data into inhibition rate, and the compound curve was fitted by log(inhibitor)vs. response-Variable slope of Graphpad Prism 5. The IC50 value was calculated by the software through the formula Y=Bottom+(Top−Bottom)/(1+10^((Log IC50−X)*HillSlope))."}, "[2]": {"conditions": "male, SD, rat, plasma, iv, i.v. 1 mg/kg"}, "[3]": {"conditions": "male, SD, rat, plasma, po, p.o. 2 mg/kg"}}, "note": "pIC50: −log10 of the molar value. Where two headings read alike, the source gives them in different places."}
{"smiles": "FCCCN1CC(Nc2ccc(C3=C(CC(F)(F)F)CCCc4c3ccc3[nH]nc(F)c43)nc2)C1", "note": "[Compound 2]", "values": [{"measurement": "Inhibition rate", "setting": "rat uterus", "result": 95.8, "unit": "%"}, {"measurement": "Ratio of uterine wet weight/rat body weight", "setting": "rat uterus", "result": 0.84, "unit": "mg/g"}, {"measurement": "Uterine wet weight", "setting": "rat uterus", "result": 52.34, "unit": "mg"}, {"measurement": "AUC(0-t)", "setting": "[1]; [2]", "result": 0.493, "unit": "µM·h"}, {"measurement": "clearance", "setting": "[1]; [2]", "result": 54.6, "unit": "mL/min/kg"}, {"measurement": "half-life", "setting": "[1]; [2]", "result": 3.62, "unit": "h"}, {"measurement": "Vd", "setting": "[1]; male, SD, rat, plasma, iv, i.v. 1 mg/kg, read-out: Vdss", "result": 15.9, "unit": "L/kg"}, {"measurement": "bioavailability", "setting": "[1]; male, SD, rat, plasma, oral, p.o. 2 mg/kg vs i.v. 1 mg/kg", "result": 24.3, "unit": "%"}, {"measurement": "AUC(0-t)", "setting": "[1]; [3]", "result": 0.24, "unit": "µM·h"}, {"measurement": "Cmax", "setting": "[1]; [3]", "result": 39.3, "unit": "nM"}, {"measurement": "half-life", "setting": "[1]; [3]", "result": 5.8, "unit": "h"}, {"measurement": "pIC50", "setting": "MCF-7 cells; Homo sapiens, MCF7, 144 h", "result": 9.38}]}
{"smiles": "FCCCN1CC[C@H](Nc2cnc(C3=C(CC(F)(F)F)CCCc4c3ccc3[nH]nc(F)c43)cn2)C1", "note": "[Compound 11A]", "values": [{"measurement": "Inhibition rate", "setting": "rat uterus", "result": 99.0, "unit": "%"}, {"measurement": "Ratio of uterine wet weight/rat body weight", "setting": "rat uterus", "result": 1.05, "unit": "mg/g"}, {"measurement": "Uterine wet weight", "setting": "rat uterus", "result": 49.725, "unit": "mg"}, {"measurement": "AUC0-last", "setting": "[1]; i.v. 1 mg/kg", "result": 0.518, "unit": "µM·h"}, {"measurement": "Cl", "setting": "[1]; i.v. 1 mg/kg", "result": 53.1, "unit": "mL/min/kg"}, {"measurement": "T1/2", "setting": "[1]; i.v. 1 mg/kg", "result": 3.19, "unit": "h"}, {"measurement": "Vdss", "setting": "[1]; i.v. 1 mg/kg", "result": 14.5, "unit": "L/kg"}, {"measurement": "AUC0-last", "setting": "[1]; p.o. 2 mg/kg", "result": 0.601, "unit": "µM·h"}, {"measurement": "Cmax", "setting": "[1]; p.o. 2 mg/kg", "result": 66.9, "unit": "nM"}, {"measurement": "T1/2", "setting": "[1]; p.o. 2 mg/kg", "result": 8.96, "unit": "h"}, {"measurement": "F %", "setting": "[1]; p.o. 2 mg/kg vs i.v. 1 mg/kg", "result": 58.1, "unit": "%"}, {"measurement": "pIC50", "setting": "MCF-7 cells", "result": 9.77}]}
